Experimental data published in patent publication US9040530B2, “1,2,4-triazine-6-carboxamide kinase inhibitors” (Portola Pharmaceuticals, Inc., priority 2012, dated 2015).

Target: T1, full length active recombinant SYK enzyme (Homo sapiens, UniProt P43405)
T1 construct: full length active recombinant SYK enzyme (Millipore, Calif.); purchased Millipore
Assay: Inhibition of Syk tyrosine phosphorylation activity (LANCE TR-FRET kinase assay)
Format: biochemical
Conditions: 1 nM active SYK enzyme, 550 nM SYK-substrate, 100 μM ATP, 1 hour at room temperature
Description: The in vitro and in vivo human Syk activities of the inventive compounds can be determined by various procedures known in the art, such as a test for their ability to inhibit the activity of human plasma Syk.
Inhibition of Syk Tyrosine Phosphorylation Activity
SYK tyrosine phosphorylation activity is measured using the LANCE™ Technology developed by Perkin Elmer Life and Analytical Sciences (Boston, Mass.). LANCE™ refers to homogeneous time resolved fluorometry applications using techniques such as time-resolved fluorescence resonance energy transfer assay (TR-FRET) (see generally for procedures in Perkin Elmer Application Note—How to Optimize a Tyrosine Kinase Assay Using Time Resolved Fluorescence-Based LANCE Detection, wwww.perkinelmer.com/lifesciences). The assay principle involves detection of a phosphorylated substrate using energy transfer from a phosphospecific europium-labeled antibody to streptavidin-allophycocyanin as an acceptor.
Molecules are reconstituted in 30% DMSO and serially diluted 1:3 with the final dilution containing DMSO in the absence of the candidate molecule. The final DMSO concentration in the assay is 3%. Kinase assays are performed as a two part reaction. […] The second reaction involves termination of the kinase reaction and the simultaneous addition of the detection reagents-europium-labeled anti-phosphotyrosine reagent (Eu-W1024-PY100, Perkin Elmer, Boston, Mass.) and Streptavidin-Allophycocyanin detection reagent (SA-APC, Prozyme, CA). The kinase reaction is performed in a black U-bottom 96-well microtitre plate. […] The reaction is allowed to proceed for 1 hour at room temperature. The quench buffer contains 100 mM Tris pH 7.5, 300 mM […], 20 mM EDTA, 0.02% Brij35, and 0.5% BSA. The detection reagents are added to the reaction mixture at the following dilutions-1:500 for Eu-W1024-PY100 and 1:250 for SA-APC. The kinase reaction is terminated by the addition of 50 μL quench buffer containing the detection reagents. The detection is allowed to proceed for 1 hr at room temperature. Detection of the phosphorlated substrate in the absence and presence of inhibitors is measured in the TR-FRET instrument, Analyst HT (Molecular Probes, Sunnyvale, Calif.) and the condition for measurements are set up using CriterionHost Release 2.0 (Molecular Probes, Sunnyvale, Calif.). […] IC50s were derived by non-linear regression analysis.

Row | Compound | IC50
1 | NC(=O)c1nnc(N[C@@H]2CCCC(F)(F)[C@@H]2N)nc1Nc1cccc(Cl)c1 [Example 201, 3-(((1R,2R)-2-amino-3,3-difluorocyclohexyl)amino)-5-((3-chlorophenyl)amino)-1,2,4-triazine-6-carboxamide] | 10 to 100 nM
2 | NC(=O)c1nnc(N[C@@H]2CCCC[C@@H]2N)nc1Nc1ccc(-n2nccn2)cc1 [Example 97, 5-((4-(2H-1,2,3-triazol-2-yl)phenyl)amino)-3-(((1R,2S)-2-aminocyclohexyl)amino)-1,2,4-triazine-6-carboxamide] | 10 to 100 nM
3 | NC(=O)c1nnc(N[C@@H]2CCCC[C@@H]2N)nc1Nc1ccc(F)c(Cl)c1 [Example 24, 3-(((1R,2S)-2-aminocyclohexyl)amino)-5-((3-chloro-4-fluorophenyl)amino)-1,2,4-triazine-6-carboxamide] | 1 to 10 nM
4 | Cn1ncc2cc(Nc3nc(N[C@@H]4CCCC[C@@H]4N)nnc3C(N)=O)ccc21 [Example 109, 3-(((1R,2S)-2-aminocyclohexyl)amino)-5-((1-methyl-1H-indazol-5-yl)amino)-1,2,4-triazine-6-carboxamide] | 1 to 10 nM
5 | NC(=O)c1nnc(N[C@@H]2CCCC[C@@H]2N)nc1Nc1cnc2ncccc2c1 [Example 45, 5-((1,8-naphthyridin-3-yl)amino)-3-(((1R,2S)-2-aminocyclohexyl)amino)-1,2,4-triazine-6-carboxamide] | 10 to 100 nM
6 | Cc1cc(Nc2nc(N[C@@H]3CCOC[C@@H]3N)nnc2C(N)=O)ccc1Cl [Example 224, 3-(((3R,4R)-3-aminotetrahydro-2H-pyran-4-yl)amino)-5-((4-chloro-3-methylphenyl)amino)-1,2,4-triazine-6-carboxamide] | 1 to 10 nM
7 | NC(=O)c1nnc(N[C@@H]2CCCC[C@@H]2N)nc1Nc1cccc(-c2ncco2)c1 [Example 7, 3-(((1R,2S)-2-aminocyclohexyl)amino)-5-((3-(oxazol-2-yl)phenyl)amino)-1,2,4-triazine-6-carboxamide] | 1 to 10 nM
8 | CC[C@@H](Nc1nnc(C(N)=O)c(Nc2ccc3c(c2)COCC3)n1)C(N)=O [Example 227, (R)-3-((1-amino-1-oxobutan-2-yl)amino)-5-(isochroman-7-ylamino)-1,2,4-triazine-6-carboxamide] | 1 to 10 nM
9 | CC[C@@H](Nc1nnc(C(N)=O)c(Nc2ccc(Cl)c(Cl)c2)n1)C(N)=O [Example 235, (R)-3-((1-amino-1-oxobutan-2-yl)amino)-5-((3,4-dichlorophenyl)amino)-1,2,4-triazine-6-carboxamide] | 10 to 100 nM
10 | CC[C@@H](Nc1nnc(C(N)=O)c(Nc2cccc(F)c2)n1)C(N)=O [Example 195, (R)-3-((1-amino-1-oxobutan-2-yl)amino)-5-((3-fluorophenyl)amino)-1,2,4-triazine-6-carboxamide] | 10 to 100 nM
11 | Cc1cc(Nc2nc(N[C@@H]3CCCC[C@@H]3N)nnc2C(N)=O)ccc1C(=O)N1CCC1 [Example 64, 3-(((1R,2S)-2-aminocyclohexyl)amino)-5-((4-(azetidine-1-carbonyl)-3-methylphenyl)amino)-1,2,4-triazine-6-carboxamide] | 10 to 100 nM
12 | Cn1cc(Nc2nc(N[C@@H]3CCCC[C@@H]3N)nnc2C(N)=O)cn1 [Example 78, 3-(((1R,2S)-2-aminocyclohexyl)amino)-5-((1-methyl-1H-pyrazol-4-yl)amino)-1,2,4-triazine-6-carboxamide] | 100 to 1000 nM
13 | COc1cc(Nc2nc(N[C@@H]3CCCC[C@@H]3N)nnc2C(N)=O)ccn1 [Example 68, 3-(((1R,2S)-2-aminocyclohexyl)amino)-5-((2-methoxypyridin-4-yl)amino)-1,2,4-triazine-6-carboxamide] | 1 to 10 nM
14 | CC[C@@H](Nc1nnc(C(N)=O)c(Nc2ccc(Cl)c(C(F)(F)F)c2)n1)C(N)=O [Example 240, (R)-3-((1-amino-1-oxobutan-2-yl)amino)-5-((4-chloro-3-(trifluoromethyl)phenyl)amino)-1,2,4-triazine-6-carboxamide] | 100 to 1000 nM
